We go through 15 compounds from US20240216311A1, “FULLY-DILUTABLE, SELF-MICROEMULSIFYING DELIVERY SYSTEMS (SMEDDS) FOR POORLY WATER-SOLUBLE POLAR SOLUTES” (THE GOVERNING COUNCIL OF THE UNIVERSITY OF TORONTO, priority 2020, published 2024).

The nature of series [1]: Characteristic curvature (Cc) by salinity phase scans with reference surfactant C9E5. It is filed as physicochemical. To be noted: for Cc (characteristic curvature): methodology of Example 1, C9E5 as reference surfactant; for dS*/dx: polar oil in mixtures with C9E5, heptane (cyclohexane for CBD) as oil. How it is done:
The characteristic curvature (Cc) of the candidate hydrophilic linker with extremely negative Cc (Cc<−5) was determined following the mixed reference and test surfactant method used by Zarate et al.. […] The salinity phase scans were conducted by vortex-mixing 2 mL of the aqueous surfactant solution, containing a set value of sodium chloride (g NaCl/100 mL of aqueous surfactant solution or % w/v NaCl) with 2 mL of n-heptane at room temperature in 2-dram vials sealed with a silicone-lined cap. […] The difference between the initial volume added to the vial (2 mL), and the excess phase volume was considered the volume solubilized. The ratio between the volume solubilized (in mL) and the total mass of surfactant mixture (0.2 g) was reported as the solubilization parameter (SP) for the given phase at the set salinity.

The conditions of series [2]: cited from earlier work; for Polar area: from ChemSpider; for Dipole moment: from Tantishaiyakul et al. [33].
For series [3] the following is noted: literature value, cited from earlier work.
The conditions of series [4]: adapted from [21]; cited from earlier work.
[5] abbreviates: from Drugbank, nonylphenol from ChemSpider.

The logP is a log measure of how a compound divides between an organic and an aqueous phase.

Where two headings read alike, the source gives them in different places.

Regarding `CC(C)Cc1ccc(C(C)C(=O)O)cc1` (racemic) [Ibuprofen], in series [1], the “Cc (characteristic curvature)” value was “+4.9”. Further, in series [2], the Polar area was 37 Å^2 and the Dipole moment is listed as 1.9 Debye. In series [2] (setting [5]), the “Number of H-acceptors” value is reported as 2 and the “Number of H-donors” value is reported as 1.
For `CCOC(=O)c1ccc(N)cc1` [Benzocaine], in series [1], the “Cc (characteristic curvature)” value is recorded as “+1.6” and the “dS*/dx” value is −27 % w/v NaCl.
For the compound `C=C(C)[C@@H]1CCC(C)=C[C@H]1c1c(O)cc(CCCCC)cc1O` [Cannabidiol (CBD), Cannabidiol], in series [1], the “Cc (characteristic curvature)” value is given as “+2.6” and the “dS*/dx” value is given as −38 % w/v NaCl. Also, in series [2], the Polar area is listed as 40 Å^2 and the Dipole moment is recorded as 1.9 Debye. For the same compound, in series [2] (setting [5]), the Aqueous solubility is given as 0.0013 wt %, the “Number of H-acceptors” value is 2, the “Number of H-donors” value was 2 and the pKa result is “Neutral”.
As to `C=CCc1ccc(O)c(OC)c1` [Eugenol], in series [1], the “Cc (characteristic curvature)” value was “+2.8” and the “dS*/dx” value is −37 % w/v NaCl. In series [2], the Polar area is 29 Å^2 and the Dipole moment is listed as 2.8 Debye. In addition, in series [2] (setting [5]), the “Number of H-acceptors” value is 2, the “Number of H-donors” value was 1 and the pKa result is given as “Neutral”.
In the case of `CCCCCCCC/C=C\CCCCCCCC(=O)OCC(O)CO` (centres unmarked) [Glycerol monooleate], the “Cc (characteristic curvature)” value in series [3] is “+6.6 ± 1.5”; in series [3] (listed as Peceol™), “+6.6”.
In the case of `CCCCCCCC/C=C\CCCCCCCC(=O)O` [Oleic acid], the “Cc (characteristic curvature)” value in series [3] is on record as 0 ± 0.1.
For `CCCCCCCC(=O)[O-].[Na+]` [Sodium octanoate], in series [3], the “Cc (characteristic curvature)” value is recorded as −2.1 ± 0.1. In series [4], the L is on record as 12 Å and the vs/as is recorded as 4.6 Å.
In the case of `CCCCCCCC/C=C\CCCCCCCC(=O)[O-].[Na+]` [Sodium oleate], the “Cc (characteristic curvature)” value in series [3] was −1.7 ± 0.1. In addition, in series [4], the L was 30 Å and the vs/as was 8.4 Å.
For the compound `CCCCCCCC/C=C\CCCCCCCC(=O)OCCOCC(OCCO)C1OCC(OCCO)C1OCCO` (centres unmarked) [Tween 80], the “Cc (characteristic curvature)” value in series [3] is reported as −3.0 ± 0.7. Also, in series [4], the L is 34 Å and the vs/as was 25.8 Å.
On to Disodium stearoyl capryl glutamate, for which, in series [3], the “Cc (characteristic curvature)” value was −5 ± 0.2. The vs/as in series [4] is 7.9 Å.
Take Nonylphenol: the “Cc (characteristic curvature)” value in series [1] is “+7.2”. For the same compound, in series [2], the Polar area is recorded as 20 Å^2 and the Dipole moment is on record as 1.6 Debye. For the same compound, in series [2] (setting [5]), the “Number of H-acceptors” value is given as 2, the “Number of H-donors” value was 1 and the pKa result is on record as “Neutral”. The logP in series [2] (octanol-water, from Drugbank, nonylphenol from ChemSpider) is 5.8.
Take “Sorbitan monolaurate [Sorbitan monolaurate, Span 20]”: in series [3], the “Cc (characteristic curvature)” value is reported as “+3.5 ± 0.8”.
As to “Sorbitan monooleate [Sorbitan monooleate (Span 80)]”, in series [3], the “Cc (characteristic curvature)” value is given as “+5.0 ± 1^”.
As to Sucrose distearate, in series [3], the “Cc (characteristic curvature)” value was “+4 ± 0.2”.
Turning to Sucrose palmitate, in series [3], the “Cc (characteristic curvature)” value is on record as −0.8 ± 0.2.
